Values of other authors in patent US20100135914A1, “AZEOTROPIC FUMIGANT COMPOSITIONS AND METHODS OF CONTROLLING PESTS” (priority 2008, published 2010).

Columns and labels:
[1] = test system: eggs of many moths and beetles; conditions: exposures of up to three days
[2] = test system: post-embryonic stages of insects; conditions: in vivo

SMILES: O=S(=O)(F)F [Sulfuryl fluoride]
- concentration for complete kill of the egg stage [1]: over 50 mg/L
- toxicity to post-embryonic stages of insects [2]: highly toxic

SMILES: CI [Methyl iodide]
- dosage level toxic to maize weevil eggs (maize weevil; eggs, over 6 hours): 2.16 mg/L
- toxicity to life stages of the maize weevil (maize weevil; relatively short exposure periods and low temperatures): toxic to all life stages
